This is an account of results in patent publication US20250179439A1, “PRODUCTION METHOD FOR ORGANOID” (KEIO UNIVERSITY, priority 2022, published 2025).

Residues, ends and D or L forms follow the SMILES beside them. *: point of attachment. Cbz = O=C(OCc1ccccc1)*

The test concerns CRC organoids. In words: Drug screening assay (HTS) of GFP-labelled organoids in suspension culture, 384-well. Type of test: cell-based, human. The text has this: In the present study, a total of 23 organoid lineages were subjected to screening. Prior to screening, the organoids were labeled with a green fluorescent protein (GFP) using PB-CMV-MCS-EF1α-GFP-Puro PiggyBac (PB513B-1, available from System Biosciences, LLC.) and Super PiggyBac transposase (PB210-20, available from System Biosciences, LLC.) vectors.
The organoids were dissociated with TrypLE Express (available from Thermo Fisher Scientific, Inc.) and filtered using a cell strainer (pore size: 20 μm, available from Sysmex Corporation). Using a cell sorter (SH800, available from Sony Corporation), 800 to 1,500 cells were sorted into each well of a 384-well plate.
The organoids were treated with a test compound 24 hours or 96 hours after seeding. The organoids were grown for 6 to 8 days, and the colony area was measured based on the fluorescence of GFP using an IN Cell Analyzer 6000 confocal imaging system (available from GE Healthcare Life Sciences). In addition, bright field imaging and luminescence-based ATP measurement were carried out using Cell3iMager duos (available from SCREEN Holdings Co., Ltd.) and CellTiter-Glo cell viability assay (available from Promega Corporation).
The bright field image was analyzed using software integrated into the Cell3iMager. […]

For the compound `CC(C)C[C@@H](C=O)NC(=O)[C@H](CC(C)C)NC(=O)[C@H](CC(C)C)NC(=O)OCc1ccccc1` [MG-132] (Cbz-Leu-Leu-Leu-aldehyde), the cell death (maximum concentration of 1 μM, all screening plates (normal colon and CRC organoids), used to estimate the background signal) is recorded as 100%.

In the case of (+)-JQ1, under “CRC organoids compared with normal colon organoids”, the “growth of organoids, CRC versus normal colon organoids (MANOVA of HTS drug responses)” value is listed as “suppressed the growth of organoids in a cancer-specific manner”.
